Test results taken from patent US20250388589A1, “TRICYCLIC HETEROCYCLIC DERIVATIVES, COMPOSITIONS AND USES THEREOF” (Danatlas Pharmaceuticals Co., Ltd., priority 2022, published 2025).

Key:
[1] = molecular target: hPARG (C-terminal His6-tag) (Homo sapiens (Human), UniProt Q86W56); test: PARG Enzymatic Activity Assay (HTRF); type: biochemical; settings: hPARG 65 pM final, biotinylated-NAD ribosylated PARP1 8 nM final
Method in brief: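 Readout is time-resolved fluorescence at 620 and 665 nm after 60 min RT detection with streptavidin-Eu cryptate and anti-6HIS-XL665; IC50 by 4-parameter fit, 1% DMSO and no-enzyme controls. Reaction: 8 nM final ribosylated PARP1 substrate for 10 min RT, following 60 min RT enzyme (65 pM)–compound preincubation in Tris pH 7.4 buffer with EDTA, DTT, KCl.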

Kuramochi cell line = test: Cell Viability Assay (Cell Titer-Glo, 7 days); type: cell-based; settings: 168 h, Kuramochi cells, 7 days incubation, read-out: PARG Cell viability (IC50)
Method in brief: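 IC50 from a four-parameter fit of CellTiter-Glo luminescence, scaled between DMSO-treated (high) and medium-only (low) wells. Kuramochi cells (400/well, RPMI/10% FBS) exposed 7 days at 37 °C to 9 concentrations, 3-fold steps, in duplicate.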

hPARG (C-terminal His6-tag), sequence (Q86W56 whole entry): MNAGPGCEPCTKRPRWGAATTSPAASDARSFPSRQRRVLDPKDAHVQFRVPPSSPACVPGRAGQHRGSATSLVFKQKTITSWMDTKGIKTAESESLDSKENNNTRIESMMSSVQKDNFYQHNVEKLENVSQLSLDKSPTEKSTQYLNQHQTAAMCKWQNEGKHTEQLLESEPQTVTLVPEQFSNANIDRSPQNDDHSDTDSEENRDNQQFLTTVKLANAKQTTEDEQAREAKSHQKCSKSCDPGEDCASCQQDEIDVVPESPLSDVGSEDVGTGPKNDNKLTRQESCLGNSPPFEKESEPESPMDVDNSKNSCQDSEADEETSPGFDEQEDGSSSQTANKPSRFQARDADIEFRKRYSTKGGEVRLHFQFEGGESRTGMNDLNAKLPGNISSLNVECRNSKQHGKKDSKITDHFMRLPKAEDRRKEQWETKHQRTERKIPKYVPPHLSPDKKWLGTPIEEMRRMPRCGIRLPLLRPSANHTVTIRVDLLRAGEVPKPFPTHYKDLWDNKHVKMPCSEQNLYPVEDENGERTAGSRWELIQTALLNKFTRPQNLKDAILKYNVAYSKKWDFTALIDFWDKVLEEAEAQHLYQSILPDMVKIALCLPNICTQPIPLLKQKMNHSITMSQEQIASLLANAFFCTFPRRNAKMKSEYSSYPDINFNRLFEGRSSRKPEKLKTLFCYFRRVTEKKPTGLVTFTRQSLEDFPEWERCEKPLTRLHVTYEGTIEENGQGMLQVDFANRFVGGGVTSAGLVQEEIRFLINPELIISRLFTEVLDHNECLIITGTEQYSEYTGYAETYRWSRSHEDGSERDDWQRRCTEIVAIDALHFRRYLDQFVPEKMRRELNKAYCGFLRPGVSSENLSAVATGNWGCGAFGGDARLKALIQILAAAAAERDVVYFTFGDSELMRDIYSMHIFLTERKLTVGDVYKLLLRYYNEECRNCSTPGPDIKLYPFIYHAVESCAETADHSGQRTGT

| IC50 [1] | Compound | IC50 (Kuramochi cell line) |
| --- | --- | --- |
| < 100 nM | CC(C)(O)C(=O)N1CCC(c2ncnc3c2c2ccc(S(=O)(=O)NC4(C#N)CC4)cc2n3-c2nnc(C(F)F)s2)CC1 [Example 118, N-(1-cyanocyclopropyl)-9-(5-(difluoromethyl)-1,3,4-thiadiazol-2-yl)-4-(1-(2-hydroxy-2-methylpropanoyl)piperidin-4-yl)-9H-pyrimido[4,5-b]indole-7-sulfonamide] | < 100 nM |
| < 100 nM | C[C@H]1CN(c2ncnc3c2c2ccc(S(=O)(=O)NC4(C#N)CC4)cc2n3-c2nnc(C(F)F)s2)CCN1CC#N [Example 205, (S)—N-(1-Cyanocyclopropyl)-4-(4-(cyanomethyl)-3-methylpiperazin-1-yl)-9-(5-(difluoromethyl)-1,3,4-thiadiazol-2-yl)-9H-pyrimido[4,5-b]indole-7-sulfonamide] | < 100 nM |
| < 100 nM | C[C@@H]1COCCN1c1ncnc2c1c1ccc(S(=O)(=O)NC3(C#N)CC3)cc1n2-c1nnc(C(F)F)s1 [Example 199, (R)—N-(1-Cyanocyclopropyl)-9-(5-(difluoromethyl)-1,3,4-thiadiazol-2-yl)-4-(3-methylmorpholino)-9H-pyrimido[4,5-b]indole-7-sulfonamide] | < 100 nM |
| < 100 nM | N#CC1(NS(=O)(=O)c2ccc3c4c(N5CCN(C(=O)N6CCCC6)CC5)ncnc4n(-c4nnc(C(F)F)s4)c3c2)CC1 [Example 41, N-(1-Cyanocyclopropyl)-9-(5-(difluoromethyl)-1,3,4-thiadiazol-2-yl)-4-(4-(pyrrolidine-1-carbonyl)piperazin-1-yl)-9H-pyrimido[4,5-b]indole-7-sulfonamide] | < 100 nM |
| < 100 nM | CN(C)C(=O)c1ccc(-c2ncnc3c2c2ccc(S(=O)(=O)NC4(C#N)CC4)cc2n3-c2nnc(C(F)F)s2)cc1 [Example 43, 4-(7-(N-(1-Cyanocyclopropyl)sulfamoyl)-9-(5-(difluoromethyl)-1,3,4-thiadiazol-2-yl)-9H-pyrimido[4,5-b]indol-4-yl)-N,N-dimethylbenzamide] | 100 to 1000 nM |
| < 100 nM | CN1CCN(C(=O)N2CCC(c3ncnc4c3c3ccc(S(=O)(=O)NC5(C#N)CC5)cc3n4-c3nnc(C(F)F)s3)CC2)CC1 [Example 141, N-(1-cyanocyclo-propyl)-9-(5-(difluoromethyl)-1,3,4-thiadiazol-2-yl)-4-(1-(4-methylpiperazine-1-carbonyl)piperidin-4-yl)-9H-pyrimido [4,5-b]indole-7-sulfonamide] | 100 to 1000 nM |
| 100 to 1000 nM | N#CC1(NS(=O)(=O)c2ccc3c4c(N5CCN(c6nccs6)CC5)ncnc4n(-c4nnc(C(F)F)s4)c3c2)CC1 [Example 16, N-(1-Cyanocyclopropyl)-9-(5-(difluoromethyl)-1,3,4-thiadiazol-2-yl)-4-(4-(thiazol-2-yl)piperazin-1-yl)-9H-pyrimido[4,5-b]indole-7-sulfonamide] | 100 to 1000 nM |
| < 100 nM | CC1(O)CCN(c2ncnc3c2c2ccc(S(=O)(=O)NC4(C#N)CC4)cc2n3-c2nnc(C(F)F)s2)CC1 [Example 48, N-(1-Cyanocyclopropyl)-9-(5-(difluoromethyl)-1,3,4-thiadiazol-2-yl)-4-(4-hydroxy-4-methylpiperidin-1-yl)-9H-pyrimido[4,5-b]indole-7-sulfonamide] | < 100 nM |
| < 100 nM | C[C@H]1CN(c2ncnc3c2c2ccc(S(=O)(=O)NC4(C#N)CC4)cc2n3-c2nnc(C(F)F)s2)CCN1C(=O)N(C)C [Example 37, (S)-4-(7-(N-(1-Cyanocyclopropyl)sulfamoyl)-9-(5-(difluoromethyl)-1,3,4-thiadiazol-2-yl)-9H-pyrimido[4,5-b]indol-4-yl)-N,N,2-trimethylpiperazine-1-carboxamide] | < 100 nM |
| 100 to 1000 nM | Cc1nnc(-n2c3cc(S(=O)(=O)NC4(C#N)CC4)ccc3c3c(N4CCN(C(=O)C5CC5)CC4)ncnc32)s1 [Example 185, N-(1-Cyanocyclopropyl)-4-(4-(cyclopropanecarbonyl)piperazin-1-yl)-9-(5-methyl-1,3,4-thiadiazol-2-yl)-9H-pyrimido[4,5-b]indole-7-sulfonamide] | 100 to 1000 nM |
| < 100 nM | CCS(=O)(=O)N1CCC(c2ncnc3c2c2ccc(S(=O)(=O)NC4(C#N)CC4)cc2n3-c2nnc(C(F)F)s2)CC1 [Example 122, N-(1-Cyanocyclopropyl)-9-(5-(difluoromethyl)-1,3,4-thiadiazol-2-yl)-4-(1-(ethylsulfonyl)piperidin-4-yl)-9H-pyrimido[4,5-b]indole-7-sulfonamide] | < 100 nM |
| < 100 nM | N#CC1(NS(=O)(=O)c2ccc3c4c(C5CCC(O)CC5)ncnc4n(-c4nnc(C(F)F)s4)c3c2)CC1 (centres unmarked) [Example 85, N-(1-Cyanocyclopropyl)-9-(5-(difluoromethyl)-1,3,4-thiadiazol-2-yl)-4-(4-hydroxycyclohexyl)-9H-pyrimido[4,5-b]indole-7-sulfonamide] | < 100 nM |
| < 100 nM | CC(C)C(=O)N1C[C@H](C)N(c2ncnc3c2c2ccc(S(=O)(=O)NC4(C#N)CC4)cc2n3-c2nnc(C(F)F)s2)C[C@H]1C [Example 38, N-(1-Cyanocyclopropyl)-9-(5-(difluoromethyl)-1,3,4-thiadiazol-2-yl)-4-((2S,5R)-4-isobutyryl-2,5-dimethylpiperazin-1-yl)-9H-pyrimido[4,5-b]indole-7-sulfonamide] | 100 to 1000 nM |
| < 100 nM | CC(C)[S+]([O-])N1CCN(c2ncnc3c2c2ccc(S(=O)(=O)NC4(C#N)CC4)cc2n3-c2nnc(C(F)F)s2)CC1 (centres unmarked) [Example 69, N-(1-Cyanocyclopropyl)-9-(5-(difluoromethyl)-1,3,4-thiadiazol-2-yl)-4-(4-(isopropylsulfinyl)piperazin-1-yl)-9H-pyrimido[4,5-b]indole-7-sulfonamide] | < 100 nM |
| < 100 nM | CCN(C)C(=O)N1CCN(c2ncnc3c2c2ccc(S(=O)(=O)NC4(C#N)CC4)cc2n3-c2nnc(C(F)F)s2)CC1 [Example 7, 4-(7-(N-(1-Cyanocyclopropyl)sulfamoyl)-9-(5-(difluoromethyl)-1,3,4-thiadiazol-2-yl)-9H-pyrimido[4,5-b]indol-4-yl)-N-ethyl-N-methylpiperazine-1-carboxamide] | < 100 nM |
| 100 to 1000 nM | CC(C)C(=O)N1[C@H](C)CN(c2ncnc3c2c2ccc(S(=O)(=O)NC4(C#N)CC4)cc2n3-c2nnc(C(F)F)s2)C[C@H]1C [Example 31, N-(1-Cyanocyclopropyl)-9-(5-(difluoromethyl)-1,3,4-thiadiazol-2-yl)-4-((3R,5R)-4-isobutyryl-3,5-dimethylpiperazin-1-yl)-9H-pyrimido[4,5-b]indole-7-sulfonamide] | 100 to 1000 nM |
| < 100 nM | N#CC1(NS(=O)(=O)c2ccc3c4c(C5CCN(C(=O)[C@H]6CCCO6)CC5)ncnc4n(-c4nnc(C(F)F)s4)c3c2)CC1 [Example 110, (R)-N-(1-cyanocyclopropyl)-9-(5-(difluoromethyl)-1,3,4-thiadiazol-2-yl)-4-(1-(tetrahydrofuran-2-carbonyl)piperidin-4-yl)-9H-pyrimido[4,5-b]indole-7-sulfonamide] | < 100 nM |
| < 100 nM | N#CC1(NS(=O)(=O)c2ccc3c4c(C5CCN(C(=O)N6CC[C@H](O)C6)CC5)ncnc4n(-c4nnc(C(F)F)s4)c3c2)CC1 [Example 130, (S)—N-(1-Cyanocyclopropyl)-9-(5-(difluoromethyl)-1,3,4-thiadiazol-2-yl)-4-(1-(3-hydroxypyrrolidine-1-carbonyl)piperidin-4-yl)-9H-pyrimido[4,5-b]indole-7-sulfonamide] | 100 to 1000 nM |
| < 100 nM | N#CC1(NS(=O)(=O)c2ccc3c4c(N5CCC(N6CCCC6)[C@@H](F)C5)ncnc4n(-c4nnc(C(F)F)s4)c3c2)CC1 (stereo partly drawn) [Example 207, N-(1-Cyanocyclopropyl)-9-(5-(difluoromethyl)-1,3,4-thiadiazol-2-yl)-4-((3S)-3-fluoro-4-(pyrrolidin-1-yl)piperidin-1-yl)-9H-pyrimido[4,5-b]indole-7-sulfonamide] | < 100 nM |
| < 100 nM | CC1(NS(=O)(=O)c2ccc3c4c(N5CCN(C(=O)C6CC6)CC5)ncnc4n(-c4nnc(C(F)F)s4)c3c2)CC1 [Example 1, 4-(4-(Cyclopropanecarbonyl)piperazin-1-yl)-9-(5-(difluoromethyl)-1,3,4-thiadiazol-2-yl)-N-(1-methylcyclopropyl)-9H-pyrimido[4,5-b]indole-7-sulfonamide] | 100 to 1000 nM |
| < 100 nM | N#CC1(NS(=O)(=O)c2ccc3c4c(N5CCC(O)(C(F)(F)F)CC5)ncnc4n(-c4nnc(C(F)F)s4)c3c2)CC1 [Example 191, N-(1-Cyanocyclopropyl)-9-(5-(difluoromethyl)-1,3,4-thiadiazol-2-yl)-4-(4-hydroxy-4-(trifluoromethyl)piperidin-1-yl)-9H-pyrimido [4,5-b]indole-7-sulfonamide] | < 100 nM |
| < 100 nM | CC(C)C(=O)N1C[C@@H](C)N(c2ncnc3c2c2ccc(S(=O)(=O)NC4(C#N)CC4)cc2n3-c2nnc(C(F)F)s2)C[C@@H]1C [Example 33, N-(1-Cyanocyclopropyl)-9-(5-(difluoromethyl)-1,3,4-thiadiazol-2-yl)-4-((2R,5S)-4-isobutyryl-2,5-dimethylpiperazin-1-yl)-9H-pyrimido[4,5-b]indole-7-sulfonamide] | < 100 nM |
